Source: patent publication US20180236109A1, “Pain Tracking by PET-imaging (Pain-TraP)” (Universitat zu Koln, priority 2015, published 2018)

Legend:
[1] = molecular target: T1, PSMA (Mus musculus, UniProt O35409); assay: micro-PET tracer uptake in sciatic nerve lesion (SNI) model of neuropathic pain; type: in vivo, mice
T1 construct: from tissue; host or cells: C57BL/6 mouse, in vivo (hindpaw, thigh/sciatic nerve lesion site, sciatic nerve plexus)
Protocol: (§1) Experiments were performed in male 6- to 12-week-old C57BL/6 mice. Animals were housed on a 12/12 light/dark cycle with access to food and water ad libitum. All experiments adhered to the guidelines of the International Association for the Study of Pain and to the ARRIVE guidelines, and were approved by our local Ethics Committee for Animal Research.
Under isoflurane anesthesia, the tibial and common peroneal branches of the sciatic nerve were ligated and sectioned distally, while the sural nerve was left intact (Decosterd and Woolf, 2000); (Bourquin et al., 2006). Mechanical hypersensitivity at the lateral surface of the hindpaw (sural nerve skin area) was determined using a Dynamic Plantar Aesthesiometer as described above.
(§2) The animals were allowed to wake up in their home cage, where they remained for 50 min. Subsequently, mice were reanesthetized, killed to reduce the time of procedures on the living animal, and placed on a two-animal holder (Medres®). PET scans in list mode were performed using a Focus 220 micro PET scanner (CTI-Siemens®) with a resolution at center of field of view of 1.4 mm. Data acquisition started exactly one hour after [^18F]DCFPyL-injection and lasted […]. It was followed by a transmission scan using a ^57Co-point source for attenuation correction. Following Fourier rebinning, data were reconstructed using the iterative OSEM3D/MAP procedure (Qi et al., 1998) resulting in voxel sizes of 0.38×0.38×0.80 mm.
(§3) Four individual volumes of interest (VOIs, 24 mm^3 each) were drawn, two of which were placed over the left and right sciatic nerve plexus. The other two were positioned either over the sciatic nerve lesion in the thigh and the undamaged contra-lesional thigh (in case of SNI model), or over the hindpaws (in case of CFA model). […] The ratio of ipsi- and contralateral VOIs was calculated.
For each measurement a separate set of animals was used. […] To simplify the measurement methodology, animals were sacrificed instead of anaesthesized after 1 h and measured in a pPET. Images were analyzed for the section of maximal intensity at the site of injection, the respective areas quantified, and the ratio between ipsi- and contralateral side was calculated.
(§4) In the inflammatory pain model, “Complete Freunds Adjuvant (CFA)” was injected in the left hind paw, which leads to long-lasting inflammation and pain. To induce neuropathic pain in the “Spared nerve injury (SNI) model”, two branches of the sciatic nerve were ligated, while the third branch (the sural nerve) was left intact. In both models, pain sensitivity was measured using the Dynamic Plantar Test at the day before the PET scan. A movable force actuator was positioned below the plantar surface of the animal. A thin (0.5 mm) filament exerted increasing force, until the animal twitched its paw. The time it takes for the animal to retract its paw inversely reflects touch sensitivity.
(§5) On the next day, the PSMA tracer [^18F]DCFPyL was intravenously injected. After an uptake period of 60 min, an emission scan was performed for 30 min.

[2] = molecular target: T1, PSMA; assay: micro-PET tracer uptake in Complete-Freund's-Adjuvant (CFA) model of inflammatory pain; type: in vivo, mice
Protocol: as §1
The mechanical sensitivity of the plantar side of a hindpaw was assessed with an automated testing device (dynamic plantar aesthesiometer; Ugo Basile). This device pushes a thin probe (0.5 mm diameter) with increasing force through a wire-grated floor against the plantar surface of the paw from beneath, and it automatically stops and records the latency time after which the animal withdraws the paw. The force increased from 0 to 5 g within 10 s (0.5 g/s ramp) and was then held at 5 g for an additional 10 s (Schmidtko et al., 2008a). The paw withdrawal latency was taken to be the mean of three consecutive trials with at least 10 s in between. After baseline measurements, 20 al of complete Freund's adjuvant (CFA; containing 1 mg/ml heat-killed Mycobacterium tuberculosis in paraffin oil 85% and mannide monooleate 15%; Sigma-Aldrich) was injected into the plantar subcutaneous space of a hindpaw, and paw withdrawal latencies were determined at the indicated timepoints after CFA injection (Schmidtko et al., 2008b).
as §2, §3
Each measurement was taken on a separate set of animals. […] To simplify the measurement methodology, animals were sacrificed instead of anaesthesized after 1 h and measured in a iPET. Images were analyzed for the section of maximal intensity at the site of injection, the respective areas quantified, and the ratio between ipsi- and contralateral side calculated.
as §4, §5

[3] = 10 MBq into tail vein, PET after 1 h
[4] = site of lesion, ipsi-/contralateral ratios, individual animals

T1 sequence (O35409 whole entry): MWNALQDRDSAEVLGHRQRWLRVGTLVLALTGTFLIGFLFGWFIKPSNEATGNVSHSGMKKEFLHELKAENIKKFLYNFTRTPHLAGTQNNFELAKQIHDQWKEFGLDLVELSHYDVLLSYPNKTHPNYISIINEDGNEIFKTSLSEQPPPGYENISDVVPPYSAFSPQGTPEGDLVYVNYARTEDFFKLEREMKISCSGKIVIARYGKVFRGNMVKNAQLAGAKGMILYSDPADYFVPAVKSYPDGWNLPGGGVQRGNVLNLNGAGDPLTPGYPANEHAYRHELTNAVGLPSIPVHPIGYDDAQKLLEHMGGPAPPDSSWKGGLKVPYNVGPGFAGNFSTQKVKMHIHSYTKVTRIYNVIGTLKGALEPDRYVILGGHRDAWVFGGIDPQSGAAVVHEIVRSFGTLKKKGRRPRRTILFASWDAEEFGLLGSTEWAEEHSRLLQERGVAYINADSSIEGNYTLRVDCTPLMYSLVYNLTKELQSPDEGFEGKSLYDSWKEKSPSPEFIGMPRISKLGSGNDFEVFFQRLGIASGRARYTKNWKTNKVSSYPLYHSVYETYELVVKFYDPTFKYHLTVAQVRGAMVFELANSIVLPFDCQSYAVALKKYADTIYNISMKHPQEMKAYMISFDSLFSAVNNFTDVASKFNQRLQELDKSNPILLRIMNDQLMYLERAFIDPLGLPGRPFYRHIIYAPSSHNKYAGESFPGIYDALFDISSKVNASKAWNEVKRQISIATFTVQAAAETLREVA

O=C(O)CCC(NC(=O)NC(CCCCNC(=O)c1ccc([18F])nc1)C(=O)O)C(=O)O (stereo not shown) [[^18F]DCFPyL, 2-(3-{1-Carboxy-5-[(6-[18F]fluoro-pyridine-3-carbonyl)-amino]-pentyl}-ureido)-pen tanedioic acid]
tracer uptake at the lesion site ([1]; 3, 7, and 14 days after surgery, FIG. 11B): significantly increased
tracer uptake at the contralateral side [1, 3]: little to no
tracer uptake in sham treated animals [1, 3]: little
tracer uptake at the site of injury ([1]; 10 MBq into tail vein, PET after 1 h, sciatic nerve lesion): high and strong enrichment
quantification of the uptake, increase over sham-operated controls ([1]; average, FIG. 6): 2-3 fold
tracer enrichment along the nerve plexus ([1]; neuropathic pain animals): enrichment along the nerve toward the spinal cord
correlation of tracer uptake with pain sensitivity [1, 4]: significantly correlated
tracer uptake at the lesion site ([2]; 2, 7, and 14 days after CFA injection, FIG. 12B): significantly increased
tracer uptake at the contralateral side ([2]; 10 MBq into tail vein, PET after 1 h, contralateral paw): little to no
tracer uptake at the site of CFA injection ([2]; 10 MBq into tail vein, PET after 1 h, injected hindpaw): high
enrichment at the side of CFA injection, increase over the contra-lateral side ([2]; FIG. 3): ~2 fold
quantification of the uptake, increase over controls ([2]; average, ratio ipsi-/contralateral, FIG. 3): 2 fold
correlation of tracer uptake with pain sensitivity [2, 4]: significantly correlated
